The values that follow come from patent US11548901B2, “Substituted 1,4-methanopyrido[1′,2′:4,5]pyrazino[1,2-a]pyrimidines for treating viral infections” (Gilead Sciences, Inc., priority 2012, dated 2023).

The EC50 is the concentration giving half of the maximal effect.

In this assay the test system is HIV-IIIb. Briefly: Antiviral assay in MT4 cells. It counts as cell-based. To be noted: Human immunodeficiency virus 1, IIIB, MT4, 120 h, read-out: EC50 nM in MT-4. Here is the method: For the antiviral assay utilizing MT4 cells, 0.4 μL of […] test concentration of 3-fold serially diluted compound in DMSO was added to 40 μL of cell growth medium (RPMI 1640, 10% FBS, 1% penicilline/Streptomycine, 1% L-Glutamine, 1% HEPES) in each well of 384-well assay plates (10 concentrations) in quidruplicate.
1 mL aliquots of 2×10^6 MT4 cells are pre-infected for 1 and 3 hours respectively at 37° C. with 25 μL (MT4) or of either cell growth medium (mock-infected) or a fresh 1:250 dilution of an HIV-IIIb concentrated ABI stock (0.004 m.o.i. for MT4 cells). Infected and uninfected cells are diluted in cell growth medium and 35 μL of 2000 (for MT4) cells is added to each well of the assay plates.
Assay plates were then incubated in a 37° C. incubator. […] Cell lysis was carried out by incubating at room temperature for 2-3 minutes, and then chemiluminescence was read using the Envision reader (PerkinElmer).

In the case of `CC1CC2CC1OC1Cn3cc(C(=O)NCc4ccc(F)cc4F)c(=O)c(O)c3C(=O)N21` (single isomer, unassigned) [Compound 40], the EC50 is 2.4 nM.
